These results are taken from ChEMBL document CHEMBL4811220, “Investigation of the in vitro and in vivo efficacy of peptoid-based HDAC inhibitors with dual-stage antiplasmodial activity” (Eur J Med Chem, 2021).

For data set [1], the system named is Plasmodium berghei. As to the kind of experiment: Antimalarial activity against Plasmodium berghei QIMR infected in BALB/c mouse assessed as reduction in peripheral blood parasitemia at 10 mg/kg, po qd for 4 days starting from 2 hrs post-infection and measured on 4 to 6 days post-infection by Giemsa staining based microscopic analysis relative to control. To be noted: read-out: INH.

For data set [2], the system named is Plasmodium falciparum. As to the kind of experiment: Resistance index, ratio of IC50 for antiplasmodial activity against multidrug-resistant asexual intraerythrocytic stage of Plasmodium falciparum Dd2 to IC50 for antiplasmodial activity against drug-sensitive asexual intraerythrocytic stage of Plasmodium falciparum 3D7 infected in human O+ erythrocytes by [3H]-hypoxanthine incorporation assay. The class given is functional.

Data set [3] relates to Plasmodium falciparum. Briefly: microbe, parasite or virus in culture. It counts as functional, organism-based. To be noted: 3D7, Erythrocyte.
For a further data set, the system named is HepG2. As to the kind of experiment: Cytotoxicity against human HepG2-A16-CD81EGFP cells assessed as inhibition of cell growth incubated for 24 hrs followed by medium transfer and incubation in multimode plate for 48 hrs by CellTiterGlo reagent based luminescence assay. On the technique in general: In ATP-based viability assays light output follows the ATP content of the culture.

Data set [4] is described as follows: Selectivity index, ratio of IC50 for cytotoxicity against human HepG2-A16-CD81EGFP cells to IC50 for antiplasmodial activity against drug-sensitive asexual intraerythrocytic stage of Plasmodium falciparum 3D7 infected in human O+ erythrocytes.
The test system of data set [5] is Plasmodium falciparum. As to the kind of experiment: Antiplasmodial activity against multidrug-resistant asexual intraerythrocytic stage of Plasmodium falciparum Dd2 assessed as inhibition of parasite growth incubated for 48 hrs followed by addition of [3H]hypoxanthine for 24 hrs by [3H]hypoxanthine incorporation assay. It counts as functional, organism-based.
Data set [6] relates to Plasmodium berghei. Briefly: microbe, parasite or virus in culture. The class given is functional, organism-based.
Data set [7] is described as follows: Selective index, ratio of IC50 for human HepG2-A16-CD81EGFP cells to IC50 for antiplasmodial activity against liver stage exo-erythrocytic forms of Plasmodium berghei sporozoites infected in human HepG2-A16-CD81EGFP cells.
In data set [8] the test system is Plasmodium falciparum 3D7. As to the kind of experiment: Inhibition of HDAC in trophozite-stage of Plasmodium falciparum 3D7 infected in erythrocytes assessed as hyperacetylation of histone H4 at lysine residue at 5 x IC50 incubated for 3 hrs by western blot analysis relative to control. The class given is cell-based. (In general: A western blot detects proteins with antibodies after separation by electrophoresis.)

A further data set deals with Histone deacetylase 1 (Homo sapiens, UniProt Q13547).
Sequence of Histone deacetylase 1 (Q13547 whole entry): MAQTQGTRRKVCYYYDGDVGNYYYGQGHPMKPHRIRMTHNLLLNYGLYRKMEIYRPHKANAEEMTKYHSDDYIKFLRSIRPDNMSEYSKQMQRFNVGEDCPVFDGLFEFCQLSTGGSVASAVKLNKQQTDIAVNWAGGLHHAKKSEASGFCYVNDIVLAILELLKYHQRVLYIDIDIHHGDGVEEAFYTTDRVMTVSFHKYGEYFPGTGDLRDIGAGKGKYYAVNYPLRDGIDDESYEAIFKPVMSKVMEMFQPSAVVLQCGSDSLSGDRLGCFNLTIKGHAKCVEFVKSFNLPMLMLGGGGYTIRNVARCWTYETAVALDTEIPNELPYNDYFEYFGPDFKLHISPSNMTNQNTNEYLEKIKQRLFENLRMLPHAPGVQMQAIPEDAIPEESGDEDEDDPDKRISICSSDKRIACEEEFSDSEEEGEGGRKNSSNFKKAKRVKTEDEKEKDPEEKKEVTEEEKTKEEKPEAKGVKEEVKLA
Data set [9] addresses T1, Protein deacetylase HDAC6 (Homo sapiens, UniProt Q9UBN7).
T1 sequence (Q9UBN7 whole entry): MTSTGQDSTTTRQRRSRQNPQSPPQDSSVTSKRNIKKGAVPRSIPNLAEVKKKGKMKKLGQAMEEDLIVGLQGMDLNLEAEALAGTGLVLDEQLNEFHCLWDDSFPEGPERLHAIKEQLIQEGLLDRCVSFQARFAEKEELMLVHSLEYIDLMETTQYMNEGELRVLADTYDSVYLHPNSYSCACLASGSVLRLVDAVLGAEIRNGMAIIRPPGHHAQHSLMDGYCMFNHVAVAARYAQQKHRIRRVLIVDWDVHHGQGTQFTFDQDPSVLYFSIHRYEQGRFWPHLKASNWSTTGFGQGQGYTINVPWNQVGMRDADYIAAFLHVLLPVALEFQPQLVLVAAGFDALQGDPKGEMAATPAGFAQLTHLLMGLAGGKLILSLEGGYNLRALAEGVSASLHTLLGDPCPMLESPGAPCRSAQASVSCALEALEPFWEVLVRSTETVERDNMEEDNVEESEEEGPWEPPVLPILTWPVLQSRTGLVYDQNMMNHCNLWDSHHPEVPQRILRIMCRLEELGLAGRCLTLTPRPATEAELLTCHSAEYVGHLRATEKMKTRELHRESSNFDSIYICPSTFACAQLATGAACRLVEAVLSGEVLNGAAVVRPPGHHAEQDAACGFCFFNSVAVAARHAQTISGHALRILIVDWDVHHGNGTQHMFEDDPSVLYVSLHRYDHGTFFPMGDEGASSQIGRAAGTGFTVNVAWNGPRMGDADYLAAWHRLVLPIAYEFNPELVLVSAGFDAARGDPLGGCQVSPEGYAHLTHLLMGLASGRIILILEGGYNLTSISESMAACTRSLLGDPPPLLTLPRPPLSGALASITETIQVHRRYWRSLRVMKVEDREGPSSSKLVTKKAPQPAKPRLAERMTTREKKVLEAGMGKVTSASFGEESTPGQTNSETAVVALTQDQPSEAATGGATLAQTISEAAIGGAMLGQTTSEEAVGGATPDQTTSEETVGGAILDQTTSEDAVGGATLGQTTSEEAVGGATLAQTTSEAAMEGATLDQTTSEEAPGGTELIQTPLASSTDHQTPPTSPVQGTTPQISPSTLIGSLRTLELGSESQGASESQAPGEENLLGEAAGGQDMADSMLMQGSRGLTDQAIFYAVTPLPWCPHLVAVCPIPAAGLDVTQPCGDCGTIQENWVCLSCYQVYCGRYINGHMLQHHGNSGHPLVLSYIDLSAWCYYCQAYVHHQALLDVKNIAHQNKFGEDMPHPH
As to the kind of experiment: biochemical.
Description: Inhibition of N-terminal GST-tagged full length human recombinant HDAC6 expressed in baculovirus infected Sf9 cells using ZMAL (Z-Lys(Ac)-AMC) fluorogenic substrate incubated for 90 mins by fluorescence based assay

The nature of data set [10]: Intrinsic clearance in mouse liver microsomes measured upto 40 mins by LC-MS/MS analysis.
Data set [11] is described as follows: Intrinsic clearance in human liver microsomes measured upto 40 mins by LC-MS/MS analysis. It counts as ADME, Microsome. The note with it: read-out: CLH. (Liver microsomes are vesicles of endoplasmic reticulum, rich in cytochrome P450 enzymes.)
The nature of data set [12]: Half life in mouse liver microsomes measured upto 40 mins by LC-MS/MS analysis. To be noted: liver microsomes.
A short description of data set [13]: Half life in human liver microsomes measured upto 40 mins by LC-MS/MS analysis. The class given is ADME, Microsome.
The test system of data set [14] is Plasmodium berghei. As to the kind of experiment: Antimalarial activity against Plasmodium berghei QIMR infected in BALB/c mouse assessed as reduction in peripheral blood parasitemia at 25 mg/kg, po bid for 4 days starting from 2 hrs post infection and measured on 4 to 6 days post-infection by Giemsa staining based microscopic analysis relative to control. The class given is functional. The note with it: time 4-6 day.

Data set [15] in a line: Selectivity index, ratio of IC50 for cytotoxicity against human HepG2-A16-CD81EGFP cells to IC50 for antiplasmodial activity against multidrug-resistant asexual intraerythrocytic stage of Plasmodium falciparum Dd2. It counts as toxicity, cell-based. To be noted: read-out: Ratio IC50.
Data set [16] concerns Plasmodium falciparum 3D7. As to the kind of experiment: Inhibition of HDAC in trophozite-stage of Plasmodium falciparum 3D7 infected in erythrocytes assessed as hyperacetylation of histone H4 at lysine residue at 5 x IC50 incubated for 3 hrs by western blot analysis. It counts as cell-based.

Active and inactive are the calls of the source.

Description for Histone deacetylase 1: Inhibition of C-terminal FLAG/His-tagged human recombinant HDAC1 (1 to 482 residues) expressed in baculovirus infected Sf9 cells using ZMAL (Z-Lys(Ac)-AMC) as fluorogenic substrate incubated for 90 mins by fluorescence based assay

In the case of `CCN(CC)CCCC(C)Nc1ccnc2cc(Cl)ccc12` (configuration not stated) [CHLOROQUINE], in the data set with Plasmodium berghei [1], the inhibition in vivo at 10 mg/kg/day is 100%.
Turning to `Cc1ccccc1C(=O)N(CC(=O)NCc1ccccc1)Cc1ccc(C(=O)NO)cc1`, the “Ratio IC50” value with Plasmodium falciparum [2] is 0.3. Besides, the IC50 (as a rule, the concentration at which inhibition is half-maximal) in the data set on Plasmodium falciparum [3] came out at 70 nM; with HepG2, 9620 nM; with Plasmodium falciparum [5] it was 21 nM; with Plasmodium berghei [6] it was 300 nM; against Histone deacetylase 1, 280 nM; in data set [9], 30 nM. In addition, the selectivity ratio in [4] stood at 137; in data set [7] it was 32. Moreover, the fold change (FC) in data set [8] is 2.
For `Cc1ccc(C(=O)N(CC(=O)NCc2ccccc2)Cc2ccc(C(=O)NO)cc2)c(C)c1`, the microsomal CLint at 40 min in data set [10] amounted to 38 µL/min/mg. Also, the microsomal CLint in data set [11] is 86 µL/min/mg. Besides, in the data set on Plasmodium falciparum [2], the “Ratio IC50” value was found to be 0.1. Further, the half-life (commonly the time needed for the level to fall by half in the phase considered) at 40 min in [12] was determined as 0.747 h. This molecule came in with a half-life in data set [13] of 0.328 h. Also, the IC50 in the data set on Plasmodium falciparum [3] turned out to be 24 nM; with HepG2, 3710 nM; in the data set on Plasmodium falciparum [5], 3 nM; with Plasmodium berghei [6], 160 nM; against Histone deacetylase 1, 60 nM; in data set [9], 60 nM. Further, the selectivity ratio in [4] came to 155; in [7], 23. The inhibition in vivo at 25 mg/kg in the data set on Plasmodium berghei [14] stood at 17.6%. Moreover, the fold change (FC) in data set [8] was 2.
Molecule `CNC(=O)CN(Cc1ccc(C(=O)NO)cc1)C(=O)c1ccc(C(C)C)cc1` registered a microsomal CLint at 40 min in data set [10] of 6 µL/min/mg. Moreover, in [11], the microsomal CLint came to 5 µL/min/mg. For the same molecule, in the data set with Plasmodium falciparum [2], the “Ratio IC50” value is 0.1. This molecule also returned a half-life at 40 min in data set [12] of 4.52 h. Also, in data set [13], the half-life amounted to 5.78 h. Moreover, the 50% inhibitory concentration (IC50) in the data set on Plasmodium falciparum [3] came out at 16 nM; in the data set with HepG2 it was 9160 nM; in the data set on Plasmodium falciparum [5], 2 nM; in the data set with Plasmodium berghei [6], 480 nM; against Histone deacetylase 1, 100 nM; in data set [9], 60 nM. The selectivity ratio was found to be 573 in data set [4], 19 in data set [7] and 4580 in data set [15]. Besides, in the data set with Plasmodium berghei [14], the inhibition in vivo at 25 mg/kg came out at 33.3%. Also, the inhibition entry in [16] is “Active”.
